Results from the supplement of paper PMC13380429.

Key:
A549-ACE2 [1] = experiment: phospholipidosis EC50; higher = less potent phospholipidosis inducer; conditions: 24 h
Calu-3 [2] = experiment: relative viability EC50 (midpoint between 100% and the lowest measured viability); higher = less toxic; conditions: 72 h
Caco-2 [3] = experiment: as above; conditions: 72 h
U2OS [4] = experiment: as above; conditions: 72 h
Vero E6 [5] = experiment: as above; conditions: 72 h
[6] = test system: A549-ACE2 infected with SARS-CoV-2; experiment: SARS-CoV-2 infection rate relative to DMSO; higher = more infection; conditions: 24 h
[7] = test system: A549-ACE2 infected with SARS-CoV-2; experiment: cell count relative to DMSO; higher = less toxic; conditions: 24 h
HepG2 [8] = experiment: cell viability relative to DMSO; higher = less toxic; conditions: 72 h
Calu-3 [9] = experiment: as above; conditions: 72 h
Caco-2 [10] = experiment: as above; conditions: 72 h
U2OS [11] = experiment: as above; conditions: 72 h
Vero E6 [12] = experiment: as above; conditions: 72 h
A549-ACE2 [13] = experiment: drug-induced phospholipidosis relative to tamoxifen; higher = more phospholipidosis
HepG2 [14] = experiment: drug sensitivity score (DSS) for viability; higher = more toxic; extreme values may be limits of the assay; conditions: 72 h
Calu-3 [15] = experiment: as above; conditions: 72 h
Caco-2 [16] = experiment: as above; conditions: 72 h
U2OS [17] = experiment: as above; conditions: 72 h
Vero E6 [18] = experiment: as above; conditions: 72 h
[19] = test system: A549-ACE2 infected with SARS-CoV-2; experiment: morphology score (similarity to uninfected cells); higher = more like uninfected cells; conditions: 24 h
HepG2 [20] = experiment: relative viability EC50 (midpoint between 100% and the lowest measured viability); higher = less toxic; conditions: 72 h

CCN1CCN(c2ccc(C(C)(C)NC(=O)c3cc4[nH]c5ccccc5c(=O)c4cc3F)cn2)CC1
Conditions	drug sensitivity score	phospholipidosis EC50 [µM]	relative viability EC50 [µM]
A549-ACE2 [1]	–	11.6	–
Caco-2 [3]	–	–	> 10
Caco-2 [16]	0	–	–
Calu-3 [2]	–	–	1.18
Calu-3 [15]	5.6	–	–
HepG2 [14]	5.4	–	–
U2OS [4]	–	–	3.53
U2OS [17]	3.7	–	–
Vero E6 [5]	–	–	> 10
Vero E6 [18]	0	–	–

Conditions	SARS-CoV-2 infection rate, [6] [%]	cell count, [7] [%]	cell viability, Caco-2 [10] [%]	cell viability, Calu-3 [9] [%]	cell viability, HepG2 [8] [%]	cell viability, U2OS [11] [%]	cell viability, Vero E6 [12] [%]	morphology score, [19]
1 nM	–	–	102	96.4	95.7	99.3	109	–
10 nM	–	–	105	87.8	104	96.5	102	–
100 nM	–	–	107	92.7	103	94.2	102	–
0.3 µM	92	102	–	–	–	–	–	0.33
1000 nM	–	–	116	76.7	77	105	97.2	–
3 µM	34	93	–	–	–	–	–	0.74
10 µM	11	97	–	–	–	–	–	0.74
10000 nM	–	–	86.5	43.3	52.9	25.5	92	–
30 µM	25	72	–	–	–	–	–	0.53

drug-induced phospholipidosis [%], A549-ACE2 [13]
Conditions	0.3 µM	0.833333 µM	3.33333 µM	6.66667 µM	10 µM	30 µM
24 h	6.26	-2.09	-3.71	11.8	31.3	80.5
48 h	4.42	0.5	–	–	–	67.5
72 h	12.4	4.2	–	–	–	–

CCC[C@@H]1CC2=CC(=O)CC[C@]2(C)[C@H]2CC[C@@]3(C)[C@@H](CC[C@@]3(O)CCC(=O)O)[C@H]12
Conditions	drug sensitivity score	relative viability EC50 [µM]
Caco-2 [3]	–	> 10
Caco-2 [16]	0	–
Calu-3 [2]	–	> 10
Calu-3 [15]	0	–
HepG2 [14]	0	–
HepG2 [20]	–	> 10
U2OS [4]	–	> 10
U2OS [17]	0	–
Vero E6 [5]	–	> 10
Vero E6 [18]	0	–

Conditions	SARS-CoV-2 infection rate, [6] [%]	cell count, [7] [%]	cell viability, Caco-2 [10] [%]	cell viability, Calu-3 [9] [%]	cell viability, HepG2 [8] [%]	cell viability, U2OS [11] [%]	cell viability, Vero E6 [12] [%]	morphology score, [19]
1 nM	–	–	87.4	101	87.5	98.9	94.6	–
10 nM	–	–	98.4	92.5	105	98.3	91	–
100 nM	–	–	95.7	100	93.3	97.2	97.6	–
0.3 µM	98	95	–	–	–	–	–	0.12
1000 nM	–	–	94.9	98.5	92	100	89.1	–
3 µM	105	103	–	–	–	–	–	-0.07
10 µM	97	100	–	–	–	–	–	0.07
10000 nM	–	–	89.8	102	101	93.8	95.4	–
30 µM	96	99	–	–	–	–	–	0.1

drug-induced phospholipidosis [%], A549-ACE2 [13]
Conditions	0.3 µM	0.833333 µM	3.33333 µM	6.66667 µM	10 µM	30 µM
24 h	2.3	-0.41	-0.2	0.45	2.66	5.67
48 h	3.88	0.27	-1.07	1.45	3.16	6.48
72 h	3.28	-0.65	-0.652	0.565	3.59	9.53
